Experimental data taken from US12221631B2, “Engineered migrasome, method for preparing same, and uses thereof” (priority 2021, dated 2025).

Columns and labels:
[1] = test system: Tspan4-GFP-expressing NRK cells; details: sodium chloride in DPBS replaced by chloride of the cation at equal molar concentration; five-step hypotonic stimulation
Experimental: Next, the effect of different cations on the formation of engineered migrasomes was tested.

[2] = test system: Tspan4-GFP-expressing NRK cells; experiment: Formation of engineered migrasomes after latrunculin A treatment and step-wise hypotonic stimulation; format: cell-based, rat; details: latrunculin A 0.25, 0.5, 1 μM in DPBS 10 min, then three-step hypotonic stimulation; promotion dose-dependent
Source text: The results after step-wise hypotonic treatment were shown in FIG. 2A, and the statistical results of the number of engineered migrasomes produced per cell were shown in FIG. 2B.

Compound	ability to promote the formation of engineered migrasomes [1]	number of engineered migrasomes produced per cell [2]
C[N+](C)(C)CCO.[Cl-] [choline ions, choline chloride]	significantly stronger ability	–
[Cl-].[Cs+] [cesium ions, cesium chloride]	significantly stronger ability	–
[Cl-].[K+] [potassium ions, potassium chloride]	significantly stronger ability	–
[Cl-].[Na+] [sodium ions, sodium chloride]	relatively weak ability	–
C/C1=C/C(=O)O[C@@H]2C[C@@H](CC[C@H](C)/C=C\C=C\CC1)O[C@@](O)([C@@H]1CSC(=O)N1)C2 [latrunculin A]	–	significantly promote an increase in the number of engineered migrasomes
